Experimental data as given in ChEMBL document CHEMBL1146398, “Cardenolides from the methanolic extract of Nerium oleander leaves possessing central nervous system depressant activity in mice” (J Nat Prod, 1997).
Activity calls are given as the source filed them. No cut-off for these calls is given here.

Assays:
Format in all cases: functional, organism-based
[1] = system: Mus musculus; test: Central nervous system depression activity in mouse assessed as decrease in touch response at 25 mg/kg, ip; parameters: dose 25 mg/kg
[2] = system: Mus musculus; test: Central nervous system depression activity in mouse assessed as decrease in locomotor activity at 50 mg/kg, ip; parameters: dose 50 mg/kg
[3] = system: Mus musculus; test: Central nervous system depression activity in mouse assessed as decrease in locomotor activity at 25 mg/kg, ip; parameters: dose 25 mg/kg
[4] = system: Mus musculus; test: Central nervous system depression activity in mouse assessed as decrease in touch response at 50 mg/kg, ip; parameters: dose 50 mg/kg
[5] = system: Mus musculus; test: Central nervous system depression activity in mouse assessed as staggering gait at 50 mg/kg, ip after 40 mins; parameters: dose 50 mg/kg
[6] = system: Mus musculus; test: Central nervous system depression activity in mouse assessed as abduction of limbs at 50 mg/kg, ip after 60 mins; parameters: dose 50 mg/kg
[7] = system: Mus musculus; test: Central nervous system depression activity in mouse assessed as staggering gait at 25 mg/kg, ip after 30 mins; parameters: dose 25 mg/kg
[8] = system: Mus musculus; test: Central nervous system depression activity in mouse assessed as decrease in body and limb tone at 50 mg/kg, ip after 60 mins; parameters: dose 50 mg/kg
[9] = system: Mus musculus; test: Central nervous system depression activity in mouse assessed as fast respiration at 50 mg/kg, ip after 40 mins; parameters: dose 50 mg/kg
[10] = system: Mus musculus; test: Central nervous system depression activity in mouse assessed as induction of passivity at 50 mg/kg, ip after 60 mins; parameters: dose 50 mg/kg
[11] = system: Mus musculus; test: Central nervous system depression activity in mouse assessed as tremors on movement at 50 mg/kg, ip after 60 mins; parameters: dose 50 mg/kg
[12] = system: Mus musculus; test: Central nervous system depression activity in mouse assessed as passivity at 25 mg/kg, ip; parameters: dose 25 mg/kg
[13] = system: Mus musculus; test: Central nervous system depression activity in mouse assessed as staggering gait at 25 mg/kg, ip; parameters: dose 25 mg/kg
[14] = system: Mus musculus; test: Central nervous system depression activity in mouse assessed as ptosis at 25 mg/kg, ip; parameters: dose 25 mg/kg

Row | Structure (SMILES) | Activity [1] | Activity [2] | Activity [3] | Activity [4] | Activity [5] | Activity [6] | Activity [7] | Activity [8] | Activity [9] | Activity [10] | Activity [11] | Activity [12] | Activity [13] | Activity [14]
1 | CO[C@H]1[C@H](O[C@H]2CC[C@@]3(C)[C@H](CC[C@@H]4[C@@H]3CC[C@]3(C)C(C5=CC(=O)OC5)=CC[C@]43O)C2)O[C@H](C)[C@H](O)[C@@H]1OC | inactive | Active | Active | Active | Active | – | – | – | – | – | – | – | – | –
2 | CO[C@H]1[C@@H](O)[C@@H](C)O[C@@H](O[C@H]2CC[C@@]3(C)[C@H](CC[C@@H]4[C@@H]3CC[C@]3(C)[C@@H](C5=CC(=O)OC5)[C@@H](OC(C)=O)C[C@]43O)C2)[C@@H]1O | inactive | Active | – | – | – | Active | Active | Active | Active | Active | Active | – | – | –
3 | CO[C@H]1[C@@H](O)[C@@H](C)O[C@@H](O[C@H]2CC[C@@]3(C)[C@H](CC[C@@H]4[C@@H]3CC[C@]3(C)[C@@H](C5=CC(=O)OC5)CC[C@]43O)C2)[C@@H]1O | Active | Active | Active | – | – | – | – | – | – | – | – | Active | Active | Active
